Laboratory results reported in PMC5442318, “Hundreds of dual-stage antimalarial molecules discovered by a functional gametocyte screen” (Nature Communications, 2017).
Where two headings read alike, the source gives them in different places.

Assays:
[1] = system: P. falciparum stages IV–V gametocytes; assay: Gametocytocidal ATP-depletion assay (gametocyte ATP bioluminescence); type: cell-based, Plasmodium falciparum
Protocol: In parallel, the set of confirmed hits from the Pf FGAA screen was cross-compared in the gametocyte ATP-depletion assay, at 2 μM single concentration (Supplementary Data 1). This assay monitors ATP levels as surrogate of gametocyte viability.
‘Viability' of mature gametocytes was determined using the gametocyte ATP bioluminiscence assay. Briefly, stages IV–V gametocyte cultures were double-purified by differential sedimentation followed by magnetic isolation. Then, parasites (50 μl per well containing 12,500 gametocytes) were added to compound pre-dispensed 384-well plates (781091, Greiner Bio-One) and incubated at 37 °C for 48 h (3% O2, 5% CO2 and 92% N2). BacTiter-Glo kit (G8231, Promega) was used to determine the ATP levels of ‘live' parasites according to the manufacturer's instructions. After reagent addition (50 μl per well), luminescence of the plates was measured using a microplate reader (HTS counter Victor, Wallac).

[2] = system: P. falciparum asexual blood stages; conditions: read-out: Pf Asexual blood stages XC50, cited from earlier work
[3] = system: P. falciparum stage V female gametocytes; assay: P. falciparum female gametocyte activation assay (Pf FGAA), 24 h or 48 h preincubation, Pfs25 expression readout; type: cell-based, Plasmodium falciparum NF54; conditions: mean, read-out: Gametocytes mean Pf FGAA IC50
Protocol: P. falciparum NF54 (originally isolated from an imported malaria case in the Netherlands in the 1980s; BEI Resources, cat. no. MRA-1000) asexual-stage culture was performed as described by Trager and Jensen[37]. Cultures synchronized at the ring stage were used to start gametocyte cultures (day 0) at 1% parasitaemia and 4% haematocrit in 200 ml final volume using culture bottles (Nalgene 3110-42, Thermo Scientific). Complete culture medium (RPMI 1640 supplemented with 25 mM HEPES, 50 μg ml^−1 hypoxanthine, 2 g l^−1 NaHCO3 and 10% pooled human male type A+ serum) was totally replaced daily for 14 days without fresh erythrocyte addition. Human serum was obtained from Interstate Blood Bank, A^+ serotype; no aspirin 2 h before drawing and no antimalarials 2 weeks before drawing. To ensure a stable temperature at 37 °C, which is crucial for gametocyte production and maturation, pre-warmed medium and a slide warmer (XH-2001, Premiere) were used. Under these conditions, parasitaemia reaches a peak of asexual stages on days 4–5, and the first gametocytes are differentiated in culture on day 6. Sexual-stage development was monitored microscopically by Giemsa-stained thin blood smears at day 7 (mainly asexual stages and stages I to III gametocytes) and day 14 (stages IV and V gametocytes).
Cultures showing mainly stage V gametocytes were purified by differential sedimentation as previously reported. The gametocyte concentration was adjusted to plate 8,000 gametocytes per well (100 μl per well) in 384-well poly-D-lysine coated plates (781946, Greiner Bio-One) containing the compounds to test. […] Female gametocyte activation was then triggered by temperature drop and addition of xanthurenic acid (D120804, Sigma) as previously described. To detect female gametes, monoclonal anti-Pfs25 antibody[38] 4B7 (BEI Resources (formerly MR4), cat. no. MRA-315) conjugated to the Cy3 fluorochrome (GE Healthcare) was added to ookinete medium (RPMI 1640 supplemented with 25 mM HEPES, 50 μg ml^−1 hypoxanthine, 2 g l^−1 NaHCO3, 100 μM xanthurenic acid and 20% human serum) at a final concentration of 0.5 μg ml^−1. Activated cultures were then kept at 26 °C for 24 h protected from light, and image acquisition was performed in the Opera High-Content Screening System (PerkinElmer). Using × 10 air objective, five images per well were taken using 532 nm excitation. Images were analysed with a Columbus image data storage and analysis system (PerkinElmer) based on a script specifically designed for this assay that considers size, roundness and intensity of fluorescence of the female activated gametocytes.
Compounds were dissolved in 100% DMSO and dispensed in the 384-well plates using an Echo-CRS liquid handler. Compounds were tested in 2–3 independent experiments. […] Based on that, Z′ factor was calculated for each plate and only those ones with values higher than 0.4 were considered acceptable for data analysis.
Assay performance statistics, such as signal to background ratio, Z′ and robust 3 s.d. activity cut-off were calculated using templates in ActivityBase XE (IDBS, Guilford, Surrey, UK). Hit population analysis and visualization were conducted using Spotfire DecisionSite (Spotfire, Inc., Somerville, MA, USA). The pIC50 (−log IC50) values were obtained using the ActivityBase XE nonlinear regression function in the full curve analysis bundle.

HepG2 cells = assay: HepG2 cytotoxicity assay; type: cell-based
Protocol: After incubation, plates and CellTiter-Glo Reagent (G7571, Promega) were equilibrated at room temperature for 30 min before proceeding to develop the luminescent signal. Using a Multidrop combi dispenser, 25 μl per well of the signal developer were added to the plates and after 10 min at room temperature for stabilization, plates were read on the ViewLux system (Perkin Elmer).

[4] = TCAMS asexual blood stage data, ref 1 (Gamo, F. J. et al., Nature 465, 305-310, 2010)
[5] = P. falciparum female gametocytes
[6] = TCAMS data, ref 1 (Gamo et al., 2010)

| Structure (SMILES) | IC50 [3, 5] [nM] | IC50 [3] [nM] | IC50 ([3]; P. falciparum female gametocyte activation assay) [nM] | Gametocytes mean ATP inhibition at 2µM [1] [%] | IC50 [2, 4] [nM] | HepG2 cells mean TOX50 (HepG2 cells; HepG2 cells; mean) [µM] | Gametocytes mean ATP inhibition at 2µM (%) [1] [%] | IC50 [2, 6] [nM] | HepG2 cells mean TOX50 (HepG2 cells; mean) [µM] | HepG2 cells mean TOX50 (HepG2 cells; mean; HepG2 cells) [µM] |
| --- | --- | --- | --- | --- | --- | --- | --- | --- | --- | --- |
| CC(C)COc1ccc2ccccc2c1CNCCCCCCNCc1c(OCC(C)C)ccc2ccccc12.CS(=O)(=O)O [TCMDC-137972] |  | 810 |  |  |  |  | 92.13 | 690 | 2.19 |  |
| COc1ccc(CNC2Cc3ccccc3C2)cc1-c1ccc(S(=O)(=O)NCCN2CCCC2)cc1.O=C(O)C(F)(F)F [TCMDC-132248] | 1990 |  |  | 20.60 | 580 | 5.89 |  |  |  |  |
| Cc1ccc(Cn2ncc(N3CCCNCC3)c(Cl)c2=O)cc1NC(=O)Nc1ccc(-c2ccccc2)cc1 [TCMDC-141924] |  |  | 1730 | -4.47 | 630 |  |  |  |  | 7.86 |
| COc1ccc(-c2cnc3[nH]cc(-c4ccncc4)c3c2)cc1OC [TCMDC-135853] | 2260 |  |  | 76.41 | 130 | 11.79 |  |  |  |  |
| CCCOc1c(CCNCCCCNCCc2ccc3ccccc3c2OCCC)ccc2ccccc12.CS(=O)(=O)O [TCMDC-137950] |  | 640 |  |  |  |  | 95.44 | 480 | 1.72 |  |
| CC(C)(C)c1ccc(CN2CCC(CNC(=O)c3cc(-c4cccc(Cl)c4)cs3)C2)cc1.O=C(O)C(F)(F)F (stereo not shown) [TCMDC-134446] | 990 |  |  | -13.17 | 1160 | 7.42 |  |  |  |  |
| Cc1cc(N)c2cc(NC(=O)c3cc(C(F)(F)F)cc(C(F)(F)F)c3)ccc2n1.Cl [TCMDC-139377] |  | 860 |  |  |  |  | 0.86 | 90 | 2.60 |  |
| COc1ccc2ccccc2c1CCCCN1CCN(CC(c2ccc(F)cc2)N2CCC2)CC1.O=C(O)C(F)(F)F (stereo not shown) [TCMDC-135867] |  | 5860 |  |  |  |  | -0.41 | 760 | 4.37 |  |
| Br.C/C=C/C=C/C1=NCCc2cc(OCCC)ccc21 [TCMDC-137442] |  | 1300 |  |  |  |  | 30.75 | 910 | 18.29 |  |
| c1ccc(C23N=C(Nc4nc5ccccc5[nH]4)NC2(c2ccccc2)NC(Nc2nc4ccccc4[nH]2)=N3)cc1 (stereo not shown) [TCMDC-139082] |  | 140 |  |  |  |  | 65.26 | 280 | 58.90 |  |
| O=C(c1ccc([N+](=O)[O-])o1)N1CCC(Cc2ccc(C(F)(F)F)cc2)CC1 [TCMDC-124805] | 160 |  |  | 93.11 | 170 | 27.05 |  |  |  |  |
| Cl.c1ccc2c(C3CCN(CCCCOc4ccc5c(c4)CCN(CC4CC4)CC5)CC3)c[nH]c2c1 [TCMDC-136244] |  | 1150 |  |  |  |  | -6.50 | 980 | 5.15 |  |

Continued, in another order:

| IC50 [3, 5] [nM] | IC50 [3] [nM] | IC50 ([3]; P. falciparum female gametocyte activation assay) [nM] | Structure (SMILES) | Gametocytes mean ATP inhibition at 2µM [1] [%] | IC50 [2, 4] [nM] | HepG2 cells mean TOX50 (HepG2 cells; HepG2 cells; mean) [µM] | Gametocytes mean ATP inhibition at 2µM (%) [1] [%] | IC50 [2, 6] [nM] | HepG2 cells mean TOX50 (HepG2 cells; mean) [µM] | HepG2 cells mean TOX50 (HepG2 cells; mean; HepG2 cells) [µM] |
| --- | --- | --- | --- | --- | --- | --- | --- | --- | --- | --- |
| 1300 |  |  | Br.CCc1c(CCNCCCCCCNCCc2ccc(Br)cc2)ccc(O)c1O [TCMDC-132044] | 6.14 | 900 | 7.96 |  |  |  |  |
| 2560 |  |  | CCc1c(CCNC/C=C/C=C/CNCCc2ccc(OC)c(OC)c2CC)ccc(OC)c1OC.Cl [TCMDC-132061] | 13.62 | 970 | 4.68 |  |  |  |  |
|  | 990 |  | CCCN(CCC)CCCN(CCCN(CCC)CCC)c1cc(C)nc(Nc2ccc3cc(Br)ccc3c2)n1.Cl [TCMDC-138006] |  |  |  | -22.37 | 210 | 3.43 |  |
|  | 1010 |  | CC(Cc1ccc(C(=O)Nc2ccc(CC(C)NCCc3cccc(Cl)c3)cc2)cc1)NCCc1ccc(C(F)(F)F)cc1 (stereo not shown) [TCMDC-139790] |  |  |  | 57.11 | 570 | 4.13 |  |
|  | 1020 |  | Cl.c1ccc2c(NCCCCCCCCNc3ccnc4ccccc34)ccnc2c1 [TCMDC-137751] |  |  |  | 39.31 | 160 | 1.15 |  |
|  | 1050 |  | Cl.N=C(NCCCCC1CCCCC1)c1cccc(C(=N)NCCCCC2CCCCC2)n1 [TCMDC-137452] |  |  |  | 95.86 | 400 | 1.82 |  |
|  | 700 |  | Cl.Clc1ccc(CNCCCCCCCNCc2ccc(Cl)c(Cl)c2)cc1Cl [TCMDC-138075] |  |  |  | -3.08 | 370 | 4.57 |  |
| 10900 |  |  | Br.Oc1ccc(CCNCCCCCCNCCc2ccc(-c3ccccc3)cc2)cc1O [TCMDC-131268] | 64.17 | 600 | 13.18 |  |  |  |  |
|  | 1060 |  | COc1ccc(NC(=O)c2cccc(Br)c2)cc1N1CCN(CCCCCCCN2CCN(c3cc(NC(=O)c4cccc(Br)c4)ccc3OC)CC2)CC1.Cl [TCMDC-139020] |  |  |  | -4.19 | 180 | 6.03 |  |
|  | 1830 |  | Cc1oc(-c2ccc(Cl)cc2)cc1C(=O)NCCC1CCN(CCCCCNC(=O)/C=C/c2ccc(Cl)c(Cl)c2)CC1 [TCMDC-140009] |  |  |  | -9.24 | 450 | 3.31 |  |
